Measurements as given in patent US20250222146A1, “Radiopharmaceuticals Targeting Somatostatin Receptor 2 and Uses Thereof” (RayzeBio, Inc., priority 2023, published 2025).
Numbered stars: 1 amine (or outer) side, 2 acyl side, 3 side chain; on linkers, the order of the positions; unused ones are H or OH. Square brackets hold non-standard residues; d marks the D form. Peptide text beside a SMILES is read from it. * marks the point of attachment. ξ: configuration not given here. DOTA(Lu)NH(CH2)6NHCOCH2 = O=C(CN1CCN2CCN3CCN(CC1)CC(=O)[O][Lu]([O]C(=O)C2)[O]C(=O)C3)NCCCCCCNC(=O)C*; X6 = O=C(CN1CCN2CCN3CCN(CC1)CC(=O)[O][Lu]([O]C(=O)C2)[O]C(=O)C3)NCCOCCOCCOCCNC(=O)C*; dTrp(βS-Me) = C[C@@H](c1c[nH]c2ccccc12)[C@@H](N)C(=O)O; X4 = C[C@@H](c1ccccc1)[C@H](N[*:1])C(=O)[*:2]; Phe(3R-Me) = C[C@H](c1ccccc1)[C@H](N)C(=O)O; X20 = CN(C[C@H](N[*:1])C(=O)[*:2])c1ccccc1; X22 = O=C([C@H](Cc1ccc(O)nc1)N[*:1])[*:2]; dNMeW = CN[C@H](Cc1c[nH]c2ccccc12)C(=O)O; Dip = N[C@H](C(=O)O)C(c1ccccc1)c1ccccc1; NMeF = CN[C@@H](Cc1ccccc1)C(=O)O; 4Pal = N[C@@H](Cc1ccncc1)C(=O)O; Gly(cBu) = N[C@H](C(=O)O)C1CCC1; ξThr(3R) = C[C@@H](O)C(N)C(=O)O; Cha = N[C@@H](CC1CCCCC1)C(=O)O; NMehCys = CN[C@@H](CCS)C(=O)O; NMeK = CN[C@@H](CCCCN)C(=O)O

target: SSTR2 (Homo sapiens, UniProt P30874); experiment: SSTR binding affinity by radioligand binding competition assay ([125I]-Tyr11-Somatostatin, membrane extracts); conditions: SSTR2 Ki, radioligand competition, [125I]-Tyr11-Somatostatin 0.1 nM, membrane extracts; Ki from IC50 by Cheng Prusoff
Sequence (P30874 whole entry): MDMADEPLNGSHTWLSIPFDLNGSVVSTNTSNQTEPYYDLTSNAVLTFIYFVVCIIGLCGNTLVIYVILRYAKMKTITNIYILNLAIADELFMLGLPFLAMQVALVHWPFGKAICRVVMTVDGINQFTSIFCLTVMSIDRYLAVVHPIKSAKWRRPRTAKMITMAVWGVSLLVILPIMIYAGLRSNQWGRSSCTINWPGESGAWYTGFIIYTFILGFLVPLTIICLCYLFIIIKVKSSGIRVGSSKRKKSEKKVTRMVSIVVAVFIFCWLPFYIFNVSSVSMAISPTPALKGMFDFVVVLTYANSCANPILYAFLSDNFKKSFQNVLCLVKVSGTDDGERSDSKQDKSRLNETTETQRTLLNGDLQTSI

Work on `C[C@H](O)[C@@H]1NC(=O)[C@H](CCCCN)NC(=O)[C@@H](Cc2c[nH]c3ccccc23)NC(=O)[C@H](Cc2ccc(O)cc2)NC(=O)[C@H](CCSCC(=O)NCCCCCCNC(=O)CN2CCN3CCN4CCN(CC2)CC(=O)[O][Lu]([O]C(=O)C3)[O]C(=O)C4)N(C)C(=O)[C@H](Cc2ccccc2)NC1=O` [RB-0003464] yielded a Ki of less than 1 nM.

same assay, conditions: radioligand competition, [125I]-Tyr11-Somatostatin 0.1 nM, membrane extracts; Ki from IC50 by Cheng Prusoff; read-out: SSTR2 Ki

First: C[C@@H](O)[C@@H]1NC(=O)[C@H](CCCCN)NC(=O)[C@@H](Cc2c[nH]c3ccccc23)NC(=O)[C@H](Cc2ccncc2)NC(=O)[C@H](CCSCC(=O)NCCCCCCNC(=O)CN2CCN3CCN4CCN(CC2)CC(=O)[O][Lu]([O]C(=O)C3)[O]C(=O)C4)N(C)C(=O)[C@H]([C@@H](C)c2ccccc2)NC1=O [RB-0003447] (cyclo([4Pal][dW]KT[X4][NMehCys](DOTA(Lu)NH(CH2)6NHCOCH2)))
Second: C[C@H](c1ccccc1)[C@@H]1NC(=O)[C@H]([C@@H](C)O)NC(=O)[C@H](CCCCN)NC(=O)[C@@H](Cc2c[nH]c3ccccc23)NC(=O)[C@H](Cc2ccncc2)NC(=O)[C@H](CCSCC(=O)NCCCCCCNC(=O)CN2CCN3CCN4CCN(CC2)CC(=O)[O][Lu]([O]C(=O)C3)[O]C(=O)C4)N(C)C1=O [RB-0003449] (cyclo([4Pal][dW]KT[Phe(3R-Me)][NMehCys](DOTA(Lu)NH(CH2)6NHCOCH2)))
The Ki of the first is lower: 3.33 to 10 nM for the first, 10 to 33.3 nM for the second. The first binds more tightly here.

Compared with `C[C@@H](O)[C@@H]1NC(=O)[C@H](CCCCN)NC(=O)[C@@H](Cc2c[nH]c3ccccc23)NC(=O)[C@H](Cc2ccncc2)NC(=O)[C@H](CCSCC(=O)NCCCCCCNC(=O)CN2CCN3CCN4CCN(CC2)CC(=O)[O][Lu]([O]C(=O)C3)[O]C(=O)C4)N(C)C(=O)[C@H](Cc2ccc(O)nc2)NC1=O` [RB-0003451] (cyclo([4Pal][dW]KT[X22][NMehCys](DOTA(Lu)NH(CH2)6NHCOCH2))), `C[C@@H](O)[C@@H]1NC(=O)[C@H](CCCCN)NC(=O)[C@@H](Cc2c[nH]c3ccccc23)NC(=O)[C@H](Cc2ccc(O)cc2)NC(=O)[C@H](CCCSCC(=O)NCCCCCNC(=O)CN2CCN3CCN4CCN(CC2)CC(=O)[O][Lu]([O]C(=O)C3)[O]C(=O)C4)N(C)C(=O)[C@H](Cc2ccccc2)NC1=O` [RB-0003482] is lower in Ki: 3.33 to 10 nM for the first, less than 1 nM for the second.

`C[C@@H](O)[C@@H]1NC(=O)[C@H](CCCCN)N(C)C(=O)[C@@H](Cc2c[nH]c3ccccc23)N(C)C(=O)[C@H](Cc2ccc(O)cc2)NC(=O)[C@H](CCSCC(=O)NCCCCCCNC(=O)CN2CCN3CCN4CCN(CC2)CC(=O)[O][Lu]([O]C(=O)C3)[O]C(=O)C4)N(C)C(=O)[C@H](Cc2ccccc2)NC1=O` [RB-0003455] (cyclo(F[NMehCys](DOTA(Lu)NH(CH2)6NHCOCH2)Y[dNMeW][NMeK]T)) and `CC(C)[C@@H]1NC(=O)[C@H](CCCCN)N(C)C(=O)[C@@H](Cc2c[nH]c3ccccc23)N(C)C(=O)[C@H](Cc2ccc(O)cc2)NC(=O)[C@H](CCSCC(=O)NCCCCCCNC(=O)CN2CCN3CCN4CCN(CC2)CC(=O)[O][Lu]([O]C(=O)C3)[O]C(=O)C4)N(C)C(=O)[C@H](Cc2ccccc2)NC1=O` [RB-0004611] (cyclo(F[NMehCys](DOTA(Lu)NH(CH2)6NHCOCH2)Y[dNMeW][NMeK]V)) cannot be ordered by Ki: less than 1 nM for the first, less than 1 nM for the second.

`C[C@@H](O)[C@@H]1NC(=O)[C@H](CCCCN)NC(=O)[C@@H](Cc2c[nH]c3ccccc23)NC(=O)[C@H](Cc2ccc(O)cc2)NC(=O)[C@H](CCCSCC(=O)NCCCCCCNC(=O)CN2CCN3CCN4CCN(CC2)CC(=O)[O][Lu]([O]C(=O)C3)[O]C(=O)C4)N(C)C(=O)[C@H](Cc2ccccc2)NC1=O` [RB-0003484] and `C[C@@H](O)[C@@H]1NC(=O)[C@H](CCCCN)NC(=O)[C@@H](Cc2c[nH]c3ccccc23)NC(=O)[C@H](Cc2ccc(O)cc2)NC(=O)[C@H](CCCSCC(=O)NCCOCCNC(=O)CN2CCN3CCN4CCN(CC2)CC(=O)[O][Lu]([O]C(=O)C3)[O]C(=O)C4)N(C)C(=O)[C@H](Cc2ccccc2)NC1=O` [RB-0003486] cannot be ordered by Ki: less than 1 nM for the first, less than 1 nM for the second.

First: C[C@@H](O)[C@@H]1NC(=O)[C@H](CCCCN)NC(=O)[C@@H](Cc2c[nH]c3ccccc23)NC(=O)[C@H](Cc2ccncc2)NC(=O)[C@H](CCSCC(=O)NCCOCCOCCOCCNC(=O)CN2CCN3CCN4CCN(CC2)CC(=O)[O][Lu]([O]C(=O)C3)[O]C(=O)C4)N(C)C(=O)[C@H](Cc2ccccc2)NC1=O [RB-0003504] (cyclo([4Pal][dW]KTF[NMehCys](X6)))
Second: C[C@@H](O)[C@@H]1NC(=O)[C@H](CCCCN)NC(=O)[C@@H](Cc2c[nH]c3ccccc23)NC(=O)[C@H](Cc2ccc(O)cc2)NC(=O)[C@H](CCCCCNC(=O)CN2CCN3CCN4CCN(CC2)CC(=O)[O][Lu]([O]C(=O)C3)[O]C(=O)C4)N(C)C(=O)[C@H](Cc2ccccc2)NC1=O [RB-0004536]
The Ki of the first is higher: 1 to 3.33 nM for the first, less than 1 nM for the second. The second binds more tightly here.

First: C[C@@H](O)C1NC(=O)[C@H](CCCCN)N(C)C(=O)[C@@H](Cc2c[nH]c3ccccc23)N(C)C(=O)[C@H](Cc2ccc(O)cc2)NC(=O)[C@H](CCSCC(=O)NCCCCCCNC(=O)CN2CCN3CCN4CCN(CC2)CC(=O)[O][Lu]([O]C(=O)C3)[O]C(=O)C4)N(C)C(=O)[C@H](Cc2ccccc2)N(C)C1=O (stereo partly drawn) [RB-0004538] (cyclo([NMeF][NMehCys](DOTA(Lu)NH(CH2)6NHCOCH2)Y[dNMeW][NMeK][ξThr(3R)]))
Second: CC(C)[C@@H]1NC(=O)[C@H](CCCCN)NC(=O)[C@@H]([C@@H](C)c2c[nH]c3ccccc23)NC(=O)[C@H](Cc2ccc(O)cc2)NC(=O)[C@H](CCSCC(=O)NCCCCCCNC(=O)CN2CCN3CCN4CCN(CC2)CC(=O)[O][Lu]([O]C(=O)C3)[O]C(=O)C4)N(C)C(=O)[C@H](Cc2ccccc2)NC1=O [RB-0004609] (cyclo(F[NMehCys](DOTA(Lu)NH(CH2)6NHCOCH2)Y[dTrp(βS-Me)]KV))
The Ki of the first is higher: 3.33 to 10 nM for the first, less than 1 nM for the second. The second binds more tightly here.

`CN1C(=O)[C@H](Cc2ccccc2)NC(=O)[C@H](C2CCC2)NC(=O)[C@H](CCCCN)NC(=O)[C@@H](Cc2c[nH]c3ccccc23)NC(=O)[C@H](Cc2ccc(O)cc2)NC(=O)[C@@H]1CCSCC(=O)NCCCCCCNC(=O)CN1CCN2CCN3CCN(CC1)CC(=O)[O][Lu]([O]C(=O)C2)[O]C(=O)C3` [RB-0004540] (cyclo(F[NMehCys](DOTA(Lu)NH(CH2)6NHCOCH2)Y[dW]K[Gly(cBu)])) and `CC(C)[C@@H]1NC(=O)[C@H](CCCCN)NC(=O)[C@@H](Cc2c[nH]c3ccccc23)NC(=O)[C@H](Cc2ccc(O)cc2)NC(=O)[C@H](CCSCC(=O)NCCCCCCNC(=O)CN2CCN3CCN4CCN(CC2)CC(=O)[O][Lu]([O]C(=O)C3)[O]C(=O)C4)N(C)C(=O)[C@H](CN(C)c2ccccc2)NC1=O` [RB-0004615] (cyclo(KV[X20][NMehCys](DOTA(Lu)NH(CH2)6NHCOCH2)Y[dW])) cannot be ordered by Ki: less than 1 nM for the first, less than 1 nM for the second.

Compared with `CC(C)[C@@H]1NC(=O)[C@H](CCCCN)NC(=O)[C@@H](Cc2c[nH]c3ccccc23)NC(=O)[C@H](C(c2ccccc2)c2ccccc2)NC(=O)[C@H](CCSCC(=O)NCCCCCCNC(=O)CN2CCN3CCN4CCN(CC2)CC(=O)[O][Lu]([O]C(=O)C3)[O]C(=O)C4)N(C)C(=O)[C@H](Cc2ccccc2)NC1=O` [RB-0004613] (cyclo([Dip][dW]KVF[NMehCys](DOTA(Lu)NH(CH2)6NHCOCH2))), `CC(C)[C@@H]1NC(=O)[C@H](CCCCN)NC(=O)[C@@H](Cc2c[nH]c3ccccc23)NC(=O)[C@H](Cc2ccc(O)cc2)NC(=O)[C@H](CCSCC(=O)NCCCCCCNC(=O)CN2CCN3CCN4CCN(CC2)CC(=O)[O][Lu]([O]C(=O)C3)[O]C(=O)C4)N(C)C(=O)[C@H](CC2CCCCC2)NC1=O` [RB-0004617] (cyclo([Cha][NMehCys](DOTA(Lu)NH(CH2)6NHCOCH2)Y[dW]KV)) is higher in Ki: less than 1 nM for the first, 1 to 3.33 nM for the second. The first binds more tightly here.
